Earlier results in patent publication US8846084B2, “Controlled release compositions containing zolpidem” (Wockhardt Ltd, priority 2005, dated 2014).

Molecular target: T1, (BZ)1 receptor (Homo sapiens, UniProt P14867+P18507)
T1 sequence (P14867 28-456): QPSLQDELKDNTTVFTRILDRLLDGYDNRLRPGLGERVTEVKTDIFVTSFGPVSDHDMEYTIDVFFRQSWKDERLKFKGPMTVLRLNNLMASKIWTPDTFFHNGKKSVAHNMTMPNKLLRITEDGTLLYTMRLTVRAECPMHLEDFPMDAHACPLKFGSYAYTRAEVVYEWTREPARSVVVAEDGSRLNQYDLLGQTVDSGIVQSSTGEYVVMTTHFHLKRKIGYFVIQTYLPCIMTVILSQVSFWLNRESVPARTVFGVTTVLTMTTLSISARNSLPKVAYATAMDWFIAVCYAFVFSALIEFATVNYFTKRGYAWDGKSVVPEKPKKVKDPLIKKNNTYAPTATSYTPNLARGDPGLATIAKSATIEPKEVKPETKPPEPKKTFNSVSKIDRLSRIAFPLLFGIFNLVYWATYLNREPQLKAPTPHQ
T1 sequence (P18507 40-467 limits assumed): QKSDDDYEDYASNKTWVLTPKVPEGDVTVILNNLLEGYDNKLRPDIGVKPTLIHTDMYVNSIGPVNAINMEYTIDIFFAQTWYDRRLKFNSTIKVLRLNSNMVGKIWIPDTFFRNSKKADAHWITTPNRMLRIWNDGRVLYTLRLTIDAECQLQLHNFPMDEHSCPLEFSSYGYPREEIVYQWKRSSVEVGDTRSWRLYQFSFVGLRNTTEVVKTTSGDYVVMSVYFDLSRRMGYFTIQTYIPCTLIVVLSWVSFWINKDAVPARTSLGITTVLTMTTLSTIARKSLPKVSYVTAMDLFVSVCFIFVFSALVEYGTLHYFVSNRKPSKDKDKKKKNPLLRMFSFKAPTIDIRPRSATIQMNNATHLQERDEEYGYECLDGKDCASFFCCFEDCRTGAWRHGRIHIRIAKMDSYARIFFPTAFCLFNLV
T1 sequence (P47870 25-512 partner limits assumed): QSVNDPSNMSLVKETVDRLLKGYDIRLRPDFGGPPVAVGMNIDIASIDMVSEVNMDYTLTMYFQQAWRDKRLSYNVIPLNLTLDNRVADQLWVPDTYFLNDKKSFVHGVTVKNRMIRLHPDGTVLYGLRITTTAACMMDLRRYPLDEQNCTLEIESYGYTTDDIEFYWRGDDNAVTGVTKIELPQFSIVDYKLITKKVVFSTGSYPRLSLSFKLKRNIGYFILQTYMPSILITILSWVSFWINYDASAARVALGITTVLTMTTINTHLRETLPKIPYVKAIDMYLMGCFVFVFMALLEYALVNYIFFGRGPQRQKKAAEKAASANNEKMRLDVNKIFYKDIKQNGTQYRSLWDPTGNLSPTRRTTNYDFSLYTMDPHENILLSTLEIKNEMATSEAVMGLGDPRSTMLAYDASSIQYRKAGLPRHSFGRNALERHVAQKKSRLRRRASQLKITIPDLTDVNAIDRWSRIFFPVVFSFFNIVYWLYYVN
Settings: in vitro; affinity ratio of the α1-subunits/α5-subunits

Cc1ccc(-c2nc3ccc(C)cn3c2CC(=O)N(C)C)cc1 [zolpidem, N,N,6-trimethyl-2-p-tolylimidazo[1,2-a]pyridine-3-acetamide]
receptor subtype binding preference: binds the (BZ)1 receptor preferentially with a high affinity ratio
